Experimental data taken from paper PMC6100073, “Activation of Anthracene Endoperoxides in Leishmania and Impairment of Mitochondrial Functions” (Molecules : A Journal of Synthetic Chemistry and Natural …, 2018).
Where two headings read alike, the source gives them in different places.

Key:
[1] = system: Leishmania tarentolae promastigotes (LtP); experiment: Resazurin viability assay in Leishmania tarentolae promastigotes; assay type: cell-based
Procedure: Leishmania tarentolae promastigotes (LtP) strain P10 from Jena Bioscience (Jena, Germany) were cultivated in brain heart infusion (BHI) medium (37 g/L) that was supplemented with 5 mg/L hemin, 25,000 U/L penicillin and 25 mg/L streptomycin at 26 °C. LtP were always used one day after being passaged, when the cells were in the logarithmic growth phase. The cell count was determined by measuring the optical density (OD) at a wavelength of 600 nm using a U1100 photometer (Hitachi, Tokyo, Japan). The number of the cells was subsequently calculated according to a calibration curve.
LtP (2 × 10^6 cells/mL) in a mixture of YEM and PBS (1:1, v/v) containing 25,000 U/L penicillin, 25 mg/L streptomycin, and 6 µM hemin (YEM/PBS) were prepared. Aliquots of 200 µL of this suspension were distributed in 96-well plates. Control rows containing YEM/PBS (no activity) and with untreated LtP (100% activity) were also loaded on the plate. To the wells of third rows, compounds (leading to a final vehicle concentration of max. 2% dimethyl sulfoxide (DMSO) in the wells) were added. Subsequently, five 1:5 serial dilution steps were performed. The plates were incubated at 26 °C for 48 h. Following the incubation, 50 µL of a resazurin solution in PBS were added to each well, giving a final concentration of 20 µM. After 4 h of incubation, the fluorescence was measured at 560 nm excitation and 590 nm emission using a plate reader (Perkin Elmer Enspire, Germany). The resazurin assays with J774 cells were performed in analogy to the LtP resazurin assays. Aliquots of a J774 cell suspension in DMEM supplemented with 25,000 U/L penicillin, 25 mg/L streptomycin, and 10% FCS (heat-inactivated), giving a final cell concentration of 10^5 cells/mL, were distributed in the wells of the 96-well microplates. The cells were incubated for 24 h (37 °C, 5% CO2) to allow attachment. Then the medium was discarded and non-adherent cells were removed with 200 µL PBS per well. After the addition of DMEM, the compounds were added, and a serial dilution was performed. Control rows with DMEM (no activity) and with untreated J774 cells (100% activity) were also included. The plates were incubated again for 24 h at 37 °C and 5% CO2. Then the addition of resazurin and the measurement of fluorescence were carried out in analogy to the viability assays performed in LtP.
(§1) Calculations were carried out using Microsoft Excel (Microsoft). The graphs were created using Origin 6.1 (OriginLab Corporation, Northampton, MA, USA). The half maximal inhibitory concentrations (IC50) were determined from non-linear concentration–response curves using a four-parameter logistic model and expressed as the mean ± standard deviation (SD). Statistically significant differences of p <0.05 were identified using Students t-test.

[2] = system: axenic Leishmania tarentolae amastigotes (axLtA); experiment: MTT viability assay in axenic Leishmania tarentolae amastigotes; assay type: cell-based
Procedure: An aliquot of the original LtP culture broth that was equivalent to 108 × 10^6 cells was centrifuged at 2000× g for 10 min (Sorvall RC26 Plus, rotor: SH-3000, Thermo Fisher Scientific, Waltham, MA, USA). The resulting supernatant was discarded, and the cell pellet was resuspended in 10 mL of Schneider’s medium (adjusted to a pH of 4.5 using HCl; containing 50% FCS, 25,000 U/L penicillin, and 25 mg/L streptomycin). The cell suspension was transferred and cultured in a 50 mL TubeSpin bioreactor at 32 °C. Every 3–4 days, the cells were passaged. Therefore, the cell broth was centrifuged at 2000× g for 10 min, and the supernatant was discarded. The cells were resuspended in fresh medium. During the first 14 days, after the culture was started, the cells transformed from the promastigote to the axenic amastigote state (axLtA). Subsequent to this initial period, the axenic amastigotes were passaged every 3–4 days. To determine cell density of the broth, an aliquot of the suspension, usually 1 mL, was transferred into an Eppendorf tube. The cells were then diluted 1:2 up to 1:40 using PBS, depending on the cell density of the broth. An aliquot of 20 µL of this dilution was further diluted 1:2 with a 2% formaldehyde solution (in PBS). Of this final suspension, 10 µL were transferred to each counting chamber of a standard Neubauer chamber (VWR, Wien, Austria). The cells were incubated for 5 min at 25 °C to let them sediment. Photographs of the counting chambers were taken using a light microscope (Lacerta LIS-5 microscope, Lacerta GmbH, Vienna, Austria) with an attached camera. The photos were obtained at a magnification of 100×. Four photos of every counting chamber were taken, resulting in a total of eight photos. The pictures were then analyzed with the Fiji ImageJ (2.0.0) software (Wayne Rasband, National Institutes of Health (NIH), Bethesda, Maryland (MD), USA). The results were averaged giving the final cell number of the culture broth.
Owing to the acidic conditions needed for axLtA (pH 4.5), viability assays with axLtA were carried out using MTT instead of resazurin that is unstable in an acidic environment. Cell suspensions (200 µL) of axLtA (6 × 10^6 parasites/mL) in Schneider’s medium (pH = 4.5), containing 25,000 U/L penicillin, 25 mg/L streptomycin, and 50% FCS were prepared and distributed in 96-well round-bottom microplates. Then compounds were added (leading to a final vehicle concentration of max. 2% DMSO in the wells). Subsequently, five 1:5 serial dilution steps were performed. Control rows were loaded with 200 µL of either Schneider’s medium or axLtA suspension. After incubation at 32 °C for 48 h, 20 µL of MTT solution (in PBS) were added to each well (1 mM final concentration) and incubated for additional 4 h. Then plates were centrifuged at 400× g for 5 min (Hettich Rotina 420, Tuttlingen, Germany), and the supernatant was discarded. DMSO (100 µL) was added to each well and incubated at 32 °C for 10 min. Then the OD at 570 nm and 630 nm was determined using a plate reader (Perkin Elmer Enspire, Rodgau, Germany).
as §1

[3] = system: LtP; experiment: Uncoupling of LtP respiration in presence of oligomycin (OxoPlates); assay type: cell-based, Leishmania tarentolae; settings: 38 µM Oligo; for uncoupling effect (recovery of O2 consumption in the presence of Oligo): 0.31–5.0 µM CCCP or 12.5–200.0 µM other compounds
Procedure: The uncoupling experiments using OxoPlates were carried out in analogy to oxygen consumption measurements of LtP. An oligomycin (Oligo) premix in aBHI was prepared leading to a final concentration of 38 µM oligomycin (Oligo). Each well of the second row was filled with 50 µL of aBHI. From the third row on, each well was filled with 50 µL of the Oligo premix and to the fourth row additional 50 µL Oligo premix was added. The respective amounts of the substances (Ac, AQ, AcEP1117, AcEP1118, AcEP1129, AcEP1130, CCCP) were added and a serial 1:2 dilution was performed. Measurements were carried out as described above. The oxygen consumption rates were normalized to the wells that contained only LtP. For each concentration measurements were done in triplicates.

[4] = Leishmania tarentolae, 48 h, resazurin assay, endpoint at 48 h, 2 × 10^6 LtP/mL, read-out: IC50 (µM) Mean ± SD LtP
[5] = Leishmania tarentolae, 48 h, pH 4.5, MTT assay, endpoint at 48 h, 6 × 10^6 axLtA/mL, pH 4.5, read-out: IC50 (µM) Mean ± SD axLtA

O=C1c2ccccc2C(=O)c2ccccc21 [AQ, anthraquinone, reference compound]
IC50 [1, 4]: 103 ± 17.8 µM | IC50 [2, 5]: 369 ± 9.81 µM | uncoupling effect (recovery of O2 consumption in the presence of Oligo) [3]: Neither Ac nor AQ displayed an uncoupling effect

c1ccc2cc3ccccc3cc2c1 [Ac, anthracene]
IC50 ([1]; Leishmania tarentolae, 48 h, read-out: IC50 (µM) Mean ± SD LtP, resazurin assay, endpoint at 48 h, 2 × 10^6 LtP/mL): > 400 µM | IC50 ([2]; Leishmania tarentolae, 48 h, pH 4.5, read-out: IC50 (µM) Mean ± SD axLtA, MTT assay, endpoint at 48 h, 6 × 10^6 axLtA/mL, pH 4.5): > 400 µM | uncoupling effect (recovery of O2 consumption in the presence of Oligo) [3]: Neither Ac nor AQ displayed an uncoupling effect

c1ccc2c(c1)C1OOC2c2ccccc21 [AcEP1117, 9,10-dihydro-9,10-epidioxidoanthracene]
IC50 [1, 4]: 5.72 ± 1.92 µM | IC50 [2, 5]: 56.4 ± 15 µM | uncoupling effect (recovery of O2 consumption in the presence of Oligo) [3]: no strong uncoupling was observed except for AcEP1117 at 200 µM

CC12OOC(C)(c3ccccc31)c1ccccc12 [AcEP1118, 9,10-dimethyl-9,10-dihydro-9,10-epidioxidoanthracene]
IC50 [1, 4]: 1 ± 0.73 µM | IC50 [2, 5]: 6.43 ± 0.4 µM

CC12OOC(c3ccccc31)c1ccccc12 [AcEP1129, 9-methyl-9,10-dihydro-9,10-epidioxidoanthracene]
IC50 [1, 4]: 0.61 ± 0.21 µM | IC50 [2, 5]: 3.29 ± 0.13 µM | concentration at which regain of oxygen consumption (uncoupling) is visible ([3]; declines at higher concentrations): 25 µM | uncoupling effect (recovery of O2 consumption in the presence of Oligo) [3]: a trend for uncoupling was observed at lower concentrations

CCc1ccc2c(c1)C1OOC2c2ccccc21 (stereo not drawn) [AcEP1130, 2-ethyl-9,10-dihydro-9,10-epidioxidoanthracene]
IC50 [1, 4]: 0.22 ± 0.09 µM | IC50 [2, 5]: 15.3 ± 0.31 µM

N=C(N)c1ccc(OCCCCCOc2ccc(C(=N)N)cc2)cc1 [Pen, pentamidine, reference compound]
IC50 [1, 4]: < 1 µM | IC50 ([1]; resazurin assay, endpoint at 48 h, 2 × 10^6 LtP/mL, read-out: IC50 (µM) Mean ± SD LtP): 0.84 ± 0.43 µM | IC50 [2, 5]: < 1 µM | IC50 ([2]; MTT assay, endpoint at 48 h, 6 × 10^6 axLtA/mL, pH 4.5, read-out: IC50 (µM) Mean ± SD axLtA): 0.67 ± 0.31 µM
